# Source: US20190192699A1, “NUCLEAR IMAGING AND RADIOTHERAPEUTICS AGENTS TARGETING CARBONIC ANHYDRASE IX AND USES THEREOF” (THE JOHNS HOPKINS UNIVERSITY, priority 2016, published 2019)
# Entries after “also recorded” stand apart in the source; their conditions may differ.
# Assays:
# SK-RC-52 xenografts [1] = test: Biodistribution of [111In]XYIMSR-01 and [177Lu]XYIMSR-01; assay type: in vivo, mice
# Protocol: (§1) Cell Lines and Mouse Models. Animal experiments were performed in accordance with protocols approved by the Johns Hopkins Animal Care and Use Committee (ACUC). Six-week-old female NOD/SCID mice were purchased from the Animal Resource Core of the Sidney Kimmel Comprehensive Cancer Center of Johns Hopkins and were subcutaneously injected in the lower left flank or upper right flank with 1×10^6 SK-RC-52 cells in RPMI 1640 GlutaMAX™ media (Life Technologies, Frederick, Md.) supplemented with 1% fetal bovine serum (FBS). Mice were monitored for tumor size and used for SPECT/CT imaging when the size of the tumor reached 100 mm^3.
# Biodistribution of [^111In]XYIMSR-01 and [^177Lu]XYIMSR-01. Mice bearing SK-RC-52 xenografts at lower left flank were injected intravenously with 740 kBq (20 μCi) of [^111In]XYIMSR-01, or [^177Lu]XYIMSR-01 in 200 μL of PBS. For competitive blocking, same tumor bearing mice were injected with 740 kBq (20 μCi) of [^111In]XYIMSR-01 and 200 nmole of 1 in 200 μL of PBS. At 1 h, 4 h, 8 h, 24 h and 48 h post-injection, mice were sacrificed by cervical dislocation and the blood was immediately collected by cardiac puncture. Heart, lungs, pancreas, spleen, fat, brain, muscle, small intestines, liver, stomach, kidney, urinary bladder, and tumor were collected. Each organ was weighed and the tissue radioactivity was measured with an automated gamma counter (1282 Compugamma CS, Pharmacia/LKBNuclear, Inc., Mt. Waverly, Vic. Australia). The percentage of injected dose per gram of tissue (% ID/g) was calculated by comparison with samples of a standard dilution of the initial dose. All measurements were corrected for radioactive decay.
# Data were expressed as mean±standard deviation (SD). Prism software (GraphPAD, San Diego, Calif.) was used to determine statistical significance. Statistical significance was calculated using a paired t test. P-values […] were considered significant.
# SK-RC-52 xenografts [2] = test: Radio-therapy of [177Lu]XYIMSR-01, tumor growth; assay type: in vivo, mice; settings: 11.1 MBq (300 μCi) and 18.5 MBq (500 μCi) i.v., n=4
# Protocol: as §1
# Radio-therapy of [^177Lu]XYIMSR-01. Mice bearing SK-RC-52 xenografts at lower left flank were injected intravenously with PBS, 11.1 MBq (300 μCi) and 18.5 MBq (500 μCi) of [^177Lu]XYIMSR-01 in 200 μL of PBS (n=4). Size of the tumors was measured twice a week after the injection. […] The P-values were 0.042 and 0.031 for the 11.1 and […] doses, respectively.
# [3] = 24 hr + Block (200 nmole of 1 co-injected)
# [4] = 48 hr + Block (200 nmole of 1 co-injected)
smiles,measurement,setting,value
CC(CCC(=O)N[C@@H](CC(=O)N[C@@H](CC(=O)N[C@@H](CCCCn1cc(CCCC(=O)Nc2nnc(S(N)(=O)=O)s2)nn1)C(=O)NCCOCCOCCNC(=O)CN1CCN(CC(=O)[O-])CCN(CC(=O)[O-])CCN(CC(=O)[O-])CC1)C(=O)O)C(=O)O)(c1ccc(O)cc1)c1ccc(O)cc1.[177Lu+3] [[^177Lu]XYIMSR-01],Biodistribution: Muscle,SK-RC-52 xenografts [1]; [3],0.03 ± 0.01 % ID/g
same,Biodistribution: Pancreas,SK-RC-52 xenografts [1]; [3],0.05 ± 0.03 % ID/g
same,Biodistribution: Small intestine,SK-RC-52 xenografts [1]; [3],0.18 ± 0.07 % ID/g
same,Biodistribution: Spleen,SK-RC-52 xenografts [1]; [3],0.38 ± 0.32 % ID/g
same,Biodistribution: Stomach,SK-RC-52 xenografts [1]; [3],0.21 ± 0.07 % ID/g
same,Biodistribution: Tumor,SK-RC-52 xenografts [1]; [3],1.70 ± 0.79 % ID/g
same,Tumor/Blood ratio,SK-RC-52 xenografts [1]; [3],42.0 ± 20.9
same,Tumor/Kidney ratio,SK-RC-52 xenografts [1]; [3],1.4 ± 0.6
same,Tumor/Muscle ratio,SK-RC-52 xenografts [1]; [3],58.6 ± 25.3
same,Biodistribution: Bladder,SK-RC-52 xenografts [1]; 24 hr post-injection,1.29 ± 1.10 % ID/g
same,Biodistribution: Blood,SK-RC-52 xenografts [1]; 24 hr post-injection,0.02 ± 0.01 % ID/g
same,Biodistribution: Brain,SK-RC-52 xenografts [1]; 24 hr post-injection,0.28 ± 0.10 % ID/g
same,Biodistribution: Fat,SK-RC-52 xenografts [1]; 24 hr post-injection,0.05 ± 0.04 % ID/g
same,Biodistribution: Heart,SK-RC-52 xenografts [1]; 24 hr post-injection,0.28 ± 0.14 % ID/g
same,Biodistribution: Kidney,SK-RC-52 xenografts [1]; 24 hr post-injection,3.11 ± 1.59 % ID/g
same,Biodistribution: Liver,SK-RC-52 xenografts [1]; 24 hr post-injection,0.47 ± 0.21 % ID/g
same,Biodistribution: Lung,SK-RC-52 xenografts [1]; 24 hr post-injection,1.48 ± 0.59 % ID/g
same,Biodistribution: Muscle,SK-RC-52 xenografts [1]; 24 hr post-injection,0.10 ± 0.05 % ID/g
same,Biodistribution: Pancreas,SK-RC-52 xenografts [1]; 24 hr post-injection,0.16 ± 0.07 % ID/g
same,Biodistribution: Small intestine,SK-RC-52 xenografts [1]; 24 hr post-injection,0.96 ± 0.32 % ID/g
same,Biodistribution: Spleen,SK-RC-52 xenografts [1]; 24 hr post-injection,0.20 ± 0.07 % ID/g
same,Biodistribution: Stomach,SK-RC-52 xenografts [1]; 24 hr post-injection,1.02 ± 0.56 % ID/g
same,Biodistribution: Tumor,SK-RC-52 xenografts [1]; 24 hr post-injection,12.51 ± 3.02 % ID/g
same,Tumor/Blood ratio,SK-RC-52 xenografts [1]; 24 hr post-injection,607.4±200.7
same,Tumor/Kidney ratio,SK-RC-52 xenografts [1]; 24 hr post-injection,4.5±1.4
same,Tumor/Muscle ratio,SK-RC-52 xenografts [1]; 24 hr post-injection,128.4±25.4
same,Biodistribution: Bladder,SK-RC-52 xenografts [1]; [4],0.28 ± 0.09 % ID/g
same,Biodistribution: Blood,SK-RC-52 xenografts [1]; [4],0.04 ± 0.07 % ID/g
same,Biodistribution: Brain,SK-RC-52 xenografts [1]; [4],0.02 ± 0.00 % ID/g
same,Biodistribution: Fat,SK-RC-52 xenografts [1]; [4],0.02 ± 0.01 % ID/g
same,Biodistribution: Heart,SK-RC-52 xenografts [1]; [4],0.04 ± 0.01 % ID/g
same,Biodistribution: Kidney,SK-RC-52 xenografts [1]; [4],0.39 ± 0.05 % ID/g
same,Biodistribution: Liver,SK-RC-52 xenografts [1]; [4],0.23 ± 0.04 % ID/g
same,Biodistribution: Lung,SK-RC-52 xenografts [1]; [4],0.18 ± 0.05 % ID/g
same,Biodistribution: Muscle,SK-RC-52 xenografts [1]; [4],0.01 ± 0.00 % ID/g
same,Biodistribution: Pancreas,SK-RC-52 xenografts [1]; [4],0.02 ± 0.00 % ID/g
same,Biodistribution: Small intestine,SK-RC-52 xenografts [1]; [4],0.05 ± 0.01 % ID/g
same,Biodistribution: Spleen,SK-RC-52 xenografts [1]; [4],0.15 ± 0.06 % ID/g
same,Biodistribution: Stomach,SK-RC-52 xenografts [1]; [4],0.09 ± 0.02 % ID/g
same,Biodistribution: Tumor,SK-RC-52 xenografts [1]; [4],0.65 ± 0.10 % ID/g
same,Tumor/Blood ratio,SK-RC-52 xenografts [1]; [4],42.7 ± 23.7
same,Tumor/Kidney ratio,SK-RC-52 xenografts [1]; [4],1.7 ± 0.3
same,Tumor/Muscle ratio,SK-RC-52 xenografts [1]; [4],62.5 ± 34.5
same,Biodistribution: Bladder,SK-RC-52 xenografts [1]; 48 hr post-injection,0.20 ± 0.01 % ID/g
same,Biodistribution: Blood,SK-RC-52 xenografts [1]; 48 hr post-injection,0.04 ± 0.01 % ID/g
same,Biodistribution: Brain,SK-RC-52 xenografts [1]; 48 hr post-injection,0.17 ± 0.03 % ID/g
same,Biodistribution: Fat,SK-RC-52 xenografts [1]; 48 hr post-injection,0.03 ± 0.01 % ID/g
same,Biodistribution: Heart,SK-RC-52 xenografts [1]; 48 hr post-injection,0.12 ± 0.17 % ID/g
same,Biodistribution: Kidney,SK-RC-52 xenografts [1]; 48 hr post-injection,0.76 ± 0.11 % ID/g
same,Biodistribution: Liver,SK-RC-52 xenografts [1]; 48 hr post-injection,0.19 ± 0.03 % ID/g
same,Biodistribution: Lung,SK-RC-52 xenografts [1]; 48 hr post-injection,0.90 ± 0.05 % ID/g
same,Biodistribution: Muscle,SK-RC-52 xenografts [1]; 48 hr post-injection,0.04 ± 0.01 % ID/g
same,Biodistribution: Pancreas,SK-RC-52 xenografts [1]; 48 hr post-injection,0.06 ± 0.01 % ID/g
same,Biodistribution: Small intestine,SK-RC-52 xenografts [1]; 48 hr post-injection,0.20 ± 0.05 % ID/g
same,Biodistribution: Spleen,SK-RC-52 xenografts [1]; 48 hr post-injection,0.13 ± 0.04 % ID/g
same,Biodistribution: Stomach,SK-RC-52 xenografts [1]; 48 hr post-injection,0.35 ± 0.04 % ID/g
same,Biodistribution: Tumor,SK-RC-52 xenografts [1]; 48 hr post-injection,5.82 ± 2.14 % ID/g
same,Tumor/Blood ratio,SK-RC-52 xenografts [1]; 48 hr post-injection,200.2 ± 101.7
same,Tumor/Kidney ratio,SK-RC-52 xenografts [1]; 48 hr post-injection,7.1 ± 1.8
same,Tumor/Muscle ratio,SK-RC-52 xenografts [1]; 48 hr post-injection,141.5 ± 71.7
same,tumor growth compared with control non-treated mice,SK-RC-52 xenografts [2],Delays in tumor growth; also recorded: significant therapeutic effect in controlling tumor growth
